Results published in patent US4421912A, “Cephalosporin derivatives” (Takeda Chemical Industries, Ltd., priority 1973, dated 1983).
Converted amounts (≈) assume the structure as drawn. Read-outs that look alike come from different tables or passages of the source.

Tests used:
E. coli 0-111 = test: Antibacterial spectra, agar dilution method; format: cell-based; conditions: Escherichia coli, 0111, E. coli 0-111, Table 11
Source text: (§1) (mcg/ml., agar dilution method)
as §1
(§2) (mcg/ml, agar dilution method)
(§3) (mcg./ml., agar dilution method)

E. coli NIHJ JC-2 = test: Antibacterial spectra, agar dilution method; format: cell-based; conditions: Escherichia coli
Source text: as §1, §1, §2, §3

S. aureus 1840 = test: Antibacterial spectra, agar dilution method; format: cell-based
Source text: as §1, §1, §2, §3

S. aureus 209P = test: Antibacterial spectra, agar dilution method; format: cell-based; conditions: Staphylococcus aureus, 209P, read-out: Antibacterial spectra, S. aureus 209P, Table 11
Source text: as §1, §1, §2, §3

E. coli T-7 = test: Antibacterial spectra, agar dilution method; format: cell-based; conditions: Escherichia coli
Source text: (§4) |(mcg./ml., agar dilution method)

P. vulgaris IFO 3988 = test: Antibacterial spectra, agar dilution method; format: cell-based; conditions: Proteus vulgaris
Source text: as §4

K. pneumoniae DT = test: Antibacterial spectra, agar dilution method; format: cell-based; conditions: Klebsiella pneumoniae, Table 11
P. morganii Eb53 = test: Antibacterial spectra, agar dilution method; format: cell-based; conditions: Morganella morganii
Source text: as §2, §3

Escherichia coli 0111 = test: Protective Effect on Infected Mice; format: in vivo; conditions: Escherichia coli, 0111, sc, 168 h, Table 12; male ICR/SLC mice; i.p. E. coli 0111; single subcutaneous dose immediately after challenge; 7 days; read-out: Protective Effect (ED50) on Infected Mice
Source text: Protective Effect (ED50 * , mg/kg) on Infected Mice
*Test animals: male mice (ICR/SLC) 5 mice per group per single dose
Infection: intraperitoneally with Escherichia coli 0111
Administration: a single subcutaneous dose immediately after challenge
Observation period: 7 days
*Test animals: male mice (ICR/SLC) 5 mice per group single dose

[1] = NIHJJC2, read-out: Antibacterial spectra, E. coli NIHJ JC-2, Table 11
[2] = Staphylococcus aureus, 1840, read-out: Antibacterial spectra, S. aureus 1840, Table 11
[3] = T7, E. coli T-7, agar dilution method, Table 11, read-out: Antibacterial spectra
[4] = IFO3988, P. vulgaris IFO 3988, agar dilution method, Table 11, read-out: Antibacterial spectra
[5] = P. morganii Eb53, agar dilution method, Table 11, read-out: Antibacterial spectra
[6] = T7, read-out: Antibacterial spectra
[7] = EB53, read-out: Antibacterial spectra
[8] = Staphylococcus aureus, S. aureus 1840, Table 11, read-out: Antibacterial spectra
[9] = NIHJJC2, E. coli NIHJ JC-2, Table 11, read-out: Antibacterial spectra

Row | Structure (SMILES) | MIC (E. coli 0-111) [µg/mL] | MIC (E. coli NIHJ JC-2; [1]) [µg/mL] | MIC (S. aureus 1840; [2]) [µg/mL] | MIC (S. aureus 209P) [µg/mL] | MIC (E. coli T-7; [3]) [µg/mL] | MIC (P. vulgaris IFO 3988; [4]) [µg/mL] | MIC (K. pneumoniae DT) [µg/mL] | MIC (P. morganii Eb53; [5]) [µg/mL] | MIC (E. coli T-7; [6]) [µg/mL] | MIC (P. morganii Eb53; [7]) [µg/mL] | MIC (S. aureus 1840; [8]) [µg/mL] | MIC (P. vulgaris IFO 3988; IFO3988, read-out: Antibacterial spectra) [µg/mL] | ED50 (Escherichia coli 0111) [mg/kg] | MIC (E. coli NIHJ JC-2; [9]) [µg/mL]
1 | Nc1nc(CC(=O)NC2C(=O)N3C(C(=O)O)=C(CSc4nnc(N)s4)CSC23)cs1 (centres unmarked) [Compound 4] | 0.1 (≈ 0.206 µM) | 0.78 (≈ 1.61 µM) | 0.78 (≈ 1.61 µM) | 0.2 (≈ 0.412 µM) | 100 (≈ 206 µM) | 0.2 (≈ 0.412 µM) | 0.2 (≈ 0.412 µM) | 50 (≈ 103 µM) |  |  |  |  |  | 
2 | Nc1nc(CC(=O)NC2C(=O)N3C(C(=O)[O-])=C(CSc4nnc(SCCO)s4)CS[C@H]23)cs1.[Na+] (some centres unmarked) [Compound 6, sodium 7-[2-(2-aminothiazol-4-yl)acetamido]-3-[2-(2-hydroxyethylthio)1,3,4-thiadiazol-5-yl)thiomethyl-3-cephem-4-carboxylate] | ≤ 0.2 | 0.78 | 0.78 | ≤ 0.2 |  | 0.39 | ≤ 0.2 |  | 12.5 | 6.25 |  |  |  | 
3 | CN(C)CC(=O)Nc1nnc(SCC2=C(C(=O)O)N3C(=O)C(NC(=O)Cc4csc(N)n4)C3SC2)s1 (centres unmarked) [Compound 7] | ≤ 0.2 | 0.78 (≈ 1.37 µM) |  | 0.78 (≈ 1.37 µM) | 25 (≈ 43.8 µM) | 0.39 (≈ 0.683 µM) | ≤ 0.2 |  |  | 12.5 (≈ 21.9 µM) | 3.13 (≈ 5.48 µM) |  |  | 
4 | CN(C)C(=O)Cc1nnc(SCC2=C(C(=O)[O-])N3C(=O)C(NC(=O)Cc4csc(N)n4)[C@H]3SC2)s1.[Na+] (some centres unmarked) [Compound 8, sodium 7-[2-(2-aminothiazol-4-yl)acetamido]-3-[2-(N,N-dimethylcarbamoylmethyl)-1,3,4-thiadiazol-5-yl]thiomethyl-3-cephem-4-carboxylate] | ≤ 0.2 | 0.78 | 0.78 | 0.39 |  |  | ≤ 0.2 |  | 12.5 | < 0.2 |  | 0.39 |  | 
5 | CC(=O)OCCSc1nnc(SCC2=C(C(=O)[O-])N3C(=O)C(NC(=O)Cc4csc(N)n4)[C@H]3SC2)s1.[Na+] (some centres unmarked) [Compound 11, sodium 7-[2-(2-aminothiazol-4-yl)acetamido]-3-[2-(2-acetoxyethylthio)-1,3,4-thiadiazol-5-yl]thiomethyl-3-cephem-4-carboxylate] |  |  |  |  |  |  |  |  |  |  |  |  | < 0.625 | 
6 | Nc1nc(CC(=O)NC2C(=O)N3C(C(=O)O)=C(CSc4nnc(NCCS(=O)(=O)O)s4)CSC23)cs1 (centres unmarked) [Compound 22] | ≤ 0.2 | 0.78 (≈ 1.31 µM) |  | 0.78 (≈ 1.31 µM) | 25 (≈ 42.1 µM) | ≤ 0.2 | ≤ 0.2 |  |  | 0.78 (≈ 1.31 µM) | 3.13 (≈ 5.27 µM) |  |  | 
7 | CC(=O)CSc1nnc(SCC2=C(C(=O)O)N3C(=O)C(NC(=O)Cc4csc(N)n4)C3SC2)s1 (centres unmarked) [Compound 23] | 0.39 (≈ 0.698 µM) |  | 0.78 (≈ 1.4 µM) | ≤ 0.2 | 25 (≈ 44.7 µM) | 0.39 (≈ 0.698 µM) | ≤ 0.2 | 3.13 (≈ 5.6 µM) |  |  |  |  |  | 1.56 (≈ 2.79 µM)
8 | CSCc1nnc(SCC2=C(C(=O)O)N3C(=O)C(NC(=O)Cc4csc(N)n4)C3SC2)s1 (centres unmarked) [Compound 24] | 0.39 (≈ 0.735 µM) |  | 0.78 (≈ 1.47 µM) | ≤ 0.2 | 25 (≈ 47.1 µM) | 0.39 (≈ 0.735 µM) | ≤ 0.2 | 25 (≈ 47.1 µM) |  |  |  |  |  | 1.56 (≈ 2.94 µM)
9 | CS(=O)(=O)Cc1nnc(SCC2=C(C(=O)O)N3C(=O)C(NC(=O)Cc4csc(N)n4)C3SC2)s1 (centres unmarked) [Compound 25] | ≤ 0.2 | 0.39 (≈ 0.693 µM) | 0.78 (≈ 1.39 µM) | 0.39 (≈ 0.693 µM) | 100 (≈ 178 µM) | 0.39 (≈ 0.693 µM) | ≤ 0.2 | 25 (≈ 44.4 µM) |  |  |  |  |  | 
10 | CN(C)CCn1nnnc1SCC1=C(C(=O)O)N2C(=O)C(NC(=O)Cc3csc(N)n3)C2SC1 (centres unmarked) [Compound 28] | ≤ 0.2 | 0.39 (≈ 0.742 µM) | 1.56 (≈ 2.97 µM) | 0.39 (≈ 0.742 µM) | 3.13 (≈ 5.95 µM) | 0.78 (≈ 1.48 µM) | ≤ 0.2 |  |  | ≤ 0.2 |  |  |  | 
11 | NC(=O)Cn1nnnc1SCC1=C(C(=O)O)N2C(=O)C(NC(=O)Cc3csc(N)n3)C2SC1 (centres unmarked) [Compound 29] | ≤ 0.2 | 0.39 (≈ 0.762 µM) | 1.56 (≈ 3.05 µM) | 0.78 (≈ 1.52 µM) | 3.13 (≈ 6.12 µM) | ≤ 0.2 | ≤ 0.2 |  |  | ≤ 0.2 |  |  |  | 
12 | Nc1nc(CC(=O)NC2C(=O)N3C(C(=O)O)=C(CSc4nc(CC(=O)O)cs4)CSC23)cs1 (centres unmarked) [Compound 30] | 0.39 (≈ 0.739 µM) |  | 1.56 (≈ 2.96 µM) | 0.39 (≈ 0.739 µM) | 100 (≈ 190 µM) | 0.2 (≈ 0.379 µM) | < 0.05 | 50 (≈ 94.8 µM) |  |  |  |  |  | 1.56 (≈ 2.96 µM)
